In article PMC12217474 (Antimicrobial Agents and Chemotherapy, 2025):
Like-named read-outs stand apart in the source and are kept apart here.

What was measured:
[1] = cited from earlier work
[2] = for ELF AUC0-24 / Plasma AUC0-24: steady state, healthy subjects, Study I6424-108a, N = 20
Excerpt: (§1) By fixing the plasma PK parameters to the individual post hoc values, it was possible to predict ELF concentrations using a biophase model with unidirectional first-order transfer from the central compartment to ELF (k13) and first-order elimination from the ELF compartment (k30). In order to allow for the estimation of IIV in k30, since only one ELF measurement was collected per subject, the residual variability of ELF data was fixed to be equal to that previously estimated for the plasma PK data in healthy subjects from Phases 1 and 4 studies. […] In this simulation, the parameter estimates from the modified final population PK model were utilized along with the mean (standard deviation) of the subject covariate effects in the model, such as age and body weight from healthy subjects in Study I6424-108a.

clinical = details: human, iv, 10 mg/kg; for Kp uu: epithelial lining fluid (ELF) / plasma; for Kp: epithelial lining fluid (ELF) versus total-drug plasma, ELF penetration ratio (total drug)
Excerpt: as §1

[3] = final population PK model, final estimate

vancomycin
ELF penetration ([1]; healthy volunteers with outliers removed): 41%–56

CCCCCCCCCCNCCN[C@@]1(C)C[C@H](O[C@H]2[C@H](Oc3c4cc5cc3Oc3ccc(cc3Cl)[C@@H](O)[C@@H](NC(=O)[C@@H](CC(C)C)NC)C(=O)N[C@@H](CC(N)=O)C(=O)N[C@H]5C(=O)N[C@H]3C(=O)N[C@H](C(=O)N[C@H](C(=O)O)c5cc(O)c(CNCP(=O)(O)O)c(O)c5-c5cc3ccc5O)[C@H](O)c3ccc(c(Cl)c3)O4)O[C@H](CO)[C@@H](O)[C@@H]2O)O[C@@H](C)[C@H]1O [telavancin]
k30 (first-order elimination from the ELF compartment) ([2]; ELF population PK model, final estimate, 18 healthy subjects): 0.154 h⁻¹ | ELF AUC0-24 ([2]; 10 mg/kg IV q24h, urea-corrected BAL, mean (SD), SD): 54.5 (16.1) mg·hour/L | ELF AUC0-24 ([2]; 10 mg/kg IV q24h, maximum): 99.0 mg·h/L | Plasma AUC0-24 ([2]; 10 mg/kg IV q24h, maximum): 954 mg·h/L | ELF AUC0-24 ([2]; 10 mg/kg IV q24h, median): 50.6 mg·h/L | Plasma AUC0-24 ([2]; 10 mg/kg IV q24h, median): 757 mg·h/L | ELF AUC0-24 ([2]; 10 mg/kg IV q24h, minimum): 38.3 mg·h/L | Plasma AUC0-24 ([2]; 10 mg/kg IV q24h, minimum): 570 mg·h/L | Plasma AUC0-24 ([2]; 10 mg/kg IV q24h for 3 days, mean (SD), SD): 750 (103) mg·hour/L | Kp uu (clinical; ELF penetration ratio (free drug), ELF AUC0-24/(0.1 total-drug plasma AUC0-24), median, N = 20): 0.683 | Kp uu (clinical; SD): 0.73 | Kp (clinical; ELF AUC0-24/total-drug plasma AUC0-24, healthy subjects, Study I6424-108a, mean (SD), N = 20, SD): 0.073 | Kp (clinical; ELF AUC0-24/total-drug plasma AUC0-24, median, N = 20): 0.0683 | CLDL (dialysis clearance) (bootstrap (N = 200), mean): 1.79 L/h | CLR, max (maximum renal clearance) (bootstrap (N = 200), mean): 1.04 L/h | CLd coefficient (distributional clearance between central and peripheral compartments) (bootstrap (N = 200), mean): 3.78 L/h | Vc-TBW power (bootstrap (N = 200), mean): 0.438 | Vc-age power (bootstrap (N = 200), mean): 0.184 | Vc-increase for CKD5 subjects after >48 hours has elapsed between IHD sessions (bootstrap (N = 200), mean): 1.57 L | Vc-proportional increase for bacteremia/HABP/VABP patients (bootstrap (N = 200), mean): 0.600 | Vc-proportional increase for cSSSI patients (bootstrap (N = 200), mean): 0.299 | Vc-proportional increase for females (bootstrap (N = 200), mean): −0.0583 | Vp-BMI power (bootstrap (N = 200), mean): −0.325 | Vp-TBW power (bootstrap (N = 200), mean): 0.971 | Vp-age power (bootstrap (N = 200), mean): 0.289 | Vp-proportional increase for bacteremia/HABP/VABP patients (bootstrap (N = 200), mean): 0.288 | Vp-proportional increase for cSSSI patients (bootstrap (N = 200), mean): 0.127 | CLDL (dialysis clearance) (bootstrap (N = 200), median): 1.77 L/h | CLR, max (maximum renal clearance) (bootstrap (N = 200), median): 1.04 L/h | CLd coefficient (distributional clearance between central and peripheral compartments) (bootstrap (N = 200), median): 3.75 L/h | Vc-TBW power (bootstrap (N = 200), median): 0.442 | Vc-age power (bootstrap (N = 200), median): 0.183 | Vc-increase for CKD5 subjects after >48 hours has elapsed between IHD sessions (bootstrap (N = 200), median): 1.56 L | Vc-proportional increase for bacteremia/HABP/VABP patients (bootstrap (N = 200), median): 0.599 | Vc-proportional increase for cSSSI patients (bootstrap (N = 200), median): 0.300 | Vc-proportional increase for females (bootstrap (N = 200), median): −0.0577 | Vp-BMI power (bootstrap (N = 200), median): −0.317 | Vp-TBW power (bootstrap (N = 200), median): 0.969 | Vp-age power (bootstrap (N = 200), median): 0.289 | Vp-proportional increase for bacteremia/HABP/VABP patients (bootstrap (N = 200), median): 0.295 | Vp-proportional increase for cSSSI patients (bootstrap (N = 200), median): 0.125 | CLNR (non-renal clearance) (bootstrap of final population PK model (N = 200), mean): 0.399 L/h | CLNR (non-renal clearance) (bootstrap of final population PK model (N = 200), median): 0.402 L/h | Vc-TBW power [3]: 0.469 | Vc-age power [3]: 0.188 | Vc-proportional increase for bacteremia/HABP/VABP patients [3]: 0.578 | Vc-proportional increase for cSSSI patients [3]: 0.313 | Vc-proportional increase for females [3]: −0.0584 | Vp-BMI power [3]: −0.308 | Vp-TBW power [3]: 0.976 | Vp-age power [3]: 0.272 | Vp-proportional increase for bacteremia/HABP/VABP patients [3]: 0.329 | Vp-proportional increase for cSSSI patients [3]: 0.118 | CLR, max (maximum renal clearance) (final population PK model, final estimate, Hill-type CLR-CLcr relationship, N = 1,205): 1.04 L/h | CLd coefficient (distributional clearance between central and peripheral compartments) (final population PK model, final estimate, N = 1,205): 3.73 L/h | Vc-increase for CKD5 subjects after >48 hours has elapsed between IHD sessions (final population PK model, final estimate, additive increase): 1.55 L | CLDL (dialysis clearance) (final population PK model, final estimate, during active intermittent hemodialysis, eight CKD5 subjects): 1.77 L/h | CLNR (non-renal clearance) (final population PK model, final estimate, plasma, IV, healthy subjects and patients, N = 1,205): 0.407 L/h

oritavancin
reported ELF penetration ratio ([1]; in vivo): 459%

dalbavancin
reported ELF penetration [1]: 36%
